Data from ChEMBL document CHEMBL5055690, “Introducing the Tellurophene-Appended BODIPY: PDT Agent with Mass Cytometry Tracking Capabilities” (ACS Med Chem Lett, 2021).
Calls of active or inactive are those of the source. The calls are words filed in the database; no cut-off is given here.

Assays:
[1] = test system: HeLa; test: Dark toxicity in human HeLa cells assessed as reduction in cell viability measured after 3 hrs by MTT assay; assay type: cell-based
[2] = test system: HeLa; test: Induction of ROS generation in human HeLa cells at 25 nM preincubated for 3 hrs followed by irradiation with 23.6 milliwolt/cm2 of 525 nanometer laser light for 5 mins and measured by DCFDA staining based flourescence method; assay type: functional, cell-based; conditions: time 185.0 min
[3] = test system: HeLa; test: Induction of apoptosis in human HeLa cells at 1.25 nM preincubated for 3 hrs followed by irradiation with 23.6 milliwolt/cm2 of 525 nanometer laser light for 5 mins and measured after 4 hrs by Annexin V/PI staining based flowcytometry assay; assay type: functional, cell-based; conditions: time 185.0 min
[4] = Induction of singlet oxygen generation in DMF solution assessed as singlet oxygen quantum yield irradiated with 490 nanometer LED light by DPBF-based assay; assay type: functional
[5] = test system: HeLa; test: Induction of apoptosis in human HeLa spheroids assessed as cell death at 100 nM preincubated for 3 hrs followed by irradiation with 23.6 milliwolt/cm2 of 525 nanometer laser light for 5 mins and measured after overnight by plate reader assay; assay type: functional, cell-based; conditions: time 185.0 min
[6] = Drug uptake in human HeLa cells assessed as drug accumulation at 25 to 1000 nM incubated for 3 hrs under dark condition by […] mass cytometry; assay type: ADME, cell-based; conditions: 1 µM, dose 25-1000 nM
[7] = test system: HeLa; test: Induction of ROS generation in human HeLa cells at 25 nM measured after 3 hrs by DCFDA staining based flourescence assay; assay type: cell-based; conditions: 0.025 µM

Question: Which results are given for F[B-]1(F)n2cccc2C(c2ccc(-c3ccc[te]3)cc2)=C2C=CC=[N+]21?
Answer: IC50 [1]: 1.35 µM; Activity [2]: Active; Activity [3]: Active; Activity [4]: 0.26; Activity [5]: Active; Drug uptake [6]: Active; Activity [7]: Non-Toxic
